According to US20260335205A1, “ACTIVE AGENT MODULATING THE ACTIVITY OF AN ION CHANNEL FOR USE IN REGULATION OF SKIN PIGMENTATION” (priority 2022, published 2026):

Key:
gp100 = test: gp100-specific immunoreactivity (immunohistochemistry, quantitative histomorphometry) in ex vivo human skin organ culture; assay type: cell-based; conditions: after 3 days
Description: (§1) Samples of human abdominal, temporal, and occipital skin were obtained with written patient consent and under ethical approval from healthy adult human subjects during elective plastic surgery performed for cosmetic reasons. Full-thickness human skin samples were prepared as 4-6 mm punches, placed on filter paper, and cultured at the air-liquid interphase under serum-free conditions in William's E medium supplemented only with insulin, hydrocortisone and L-glutamine, as described previously.
For topical application of menthol (Sigma), a TRPM8 activator, a stock (5 M) was prepared in ethanol and dissolved at 37 °C at a final concentration of 1 mM in a 30% v/v solution of Polyethylene glycol 6000 (Sigma) in ethanol. […]
After consecutive rinses in PBS, samples were incubated with rhodamine-conjugated secondary antibody (Jackson ImmunoResearch) diluted 1:200 in normal goat serum (2% in PBS) for 45 minutes at RT. […] Image acquisition and quantitative histomorphometric analysis were performed similar to as described for the Warthin-Starry technique, with a special emphasis on assessing the relative intensity and the area of gp100-specific immunoreactivity (IR) in the basal epidermal layer (i.e., the epidermal compartment where melanocytes reside).

[1] = tested on: epidermal melanin content in human skin organ culture; test: Epidermal melanin content (Warthin-Starry / Fontana Masson histochemistry, quantitative histomorphometry) in ex vivo human skin organ culture; assay type: cell-based
Description: as §1
For topical application of menthol (Sigma), a TRPM8 activator, a stock (5 M) was prepared in ethanol and dissolved at 37 °C at a final concentration of 1 mM in a 30% v/v solution of Polyethylene glycol 6000 (Sigma) in ethanol. For topical application of N-(3-Aminopropyl)-2-[(3-methylphenyl)methoxy]-N-(2-thienylmethyl)benzamide hydrochloride (AMTB) (Sigma), an TRPM8 inhibitor, a stock (50 mM) was prepared in water and dissolved at 37 °C at a final concentration of 10 μM in a 30% v/v solution of Polyethylene glycol 6000 (Sigma) in ethanol. Two μL droplets of this viscous solution containing menthol (1 mM), AMTB (10 μM), their combination, or ethanol as vehicle control were applied daily (up to 3 days) to the epidermis of skin biopsies.
Histochemical visualization of melanin in skin sections was performed using the Warthin-Starry Stain Kit (Abcam) or Fontana Masson histochemistry. For Warthin-Starry histochemistry, formalin-fixed human skin/HF frozen sections were rinsed in distilled water and incubated with AgNO3(0.5 % in acidulated water) for 30 seconds at 50 °C. Next, the sample was incubated with developer solution (0.42% AgNO3, 5% Gelatin, and 0.15% hydroquinone in acidulated water) and incubated for 2-5 minutes at 50 °C. The reaction was stopped by consecutive rinses in hot (60 °C) tap water for 2 minutes. Incubation with Na2S2O3 (5 % in distilled water) for 1 minute, followed by 3 minutes of consecutive washes in tap water can also be used to remove unbound AgNO3 and to tone the brown coloring of melanin black. Brief counterstain with hematoxylin was used to visualize nuclei. […]
Images were then obtained with a digital microscope (Keyence). Quantitative histomorphometric analysis was performed by assessing the relative intensity and the area of melanin stain in standardized reference areas with ImageJ (NIH; Bethesda, MD, USA). Briefly, for each parameter evaluated, multiple non-consecutive skin sections (at least 280 μm apart from each other) per punch biopsy were stained. Two skin punch biopsies were analyzed per experimental group unless indicated otherwise. The melanin content was then calculated based on the product of the fraction of area occupied by melanin and the mean shade of gray of the melanin, as described in detail elsewhere. […]

tyrosinase = test: In situ tyrosinase activity (quantitative histomorphometry) in ex vivo human skin organ culture; assay type: cell-based; conditions: after 3 days
Description: as §1, with “previously. […]” for “previously.”
For the in situ detection of tyrosinase activity (the enzyme that catalyzes the rate-limiting step of melanin synthesis), human skin cryosections were fixed in an acetone/methanol solution (1:1 ratio) and blocked with H2O2 (0.3 % in PBS) for 15 minutes. […] Tyrosinase activity was detected with the TSA™ Biotin System (Akoya Biosciences). […]
Image acquisition and quantitative histomorphometric analysis were performed similar to as described for the Warthin-Starry technique, with a special emphasis on assessing the relative intensity and the area of tyrosinase activity-specific immunoreactivity (IR) in the basal epidermal layer (i.e., the epidermal compartment where melanocytes reside).

melanocyte tyrosinase = conditions: background, phenolic compounds (e.g., hydroquinone and derivatives); cited from earlier work
[2] = background; cited from earlier work
[3] = topical menthol 1 mM, after 3 days, vs vehicle, Warthin-Starry (FIG. 1)

Cc1cccc(COc2ccccc2C(=O)N(CCCN)Cc2cccs2)c1.Cl [AMTB, N-(3-Aminopropyl)-2-[(3-methylphenyl)methoxy]-N-(2-thienylmethyl)benzamide hydrochloride]
prevention of menthol-induced increase of gp100-specific IR in the basal epidermal layers (gp100; topical AMTB 10 μM with menthol 1 mM, vs vehicle (FIG. 5)): prevented the effect of the TRPM8 agonist menthol (1 mM) to increase gp100-specific IR in the basal epidermal layers
prevention of menthol-induced increase of epidermal melanin content ([1]; topical AMTB 10 μM with menthol 1 mM, after 3 days, vs vehicle, Warthin-Starry (FIG. 4)): prevented the effect of the TRPM8 agonist menthol (1 mM) to increase epidermal melanin content
prevention of menthol-induced increase of tyrosinase activity in the basal epidermal layers (tyrosinase; topical AMTB 10 μM with menthol 1 mM, vs vehicle (FIG. 6)): prevented the effect of the TRPM8 agonist menthol (1 mM) to increase tyrosinase activity in the basal epidermal layers

Oc1ccc(O)cc1 [hydroquinone]
inhibition of melanocyte tyrosinase (melanocyte tyrosinase): shown to inhibit melanocyte tyrosinase
DNA damage [2]: shown to cause DNA damage
chronic adverse effects [2]: contact dermatitis, sclera and nail hyperpigmentation, impaired wound healing

CC1CCC(C(C)C)C(O)C1 (centres unmarked) [menthol]
intensity level of gp100-specific IR in the basal epidermal layers (gp100; topical menthol 1 mM, vs vehicle (FIG. 2)): markedly increases the intensity level of gp100-specific IR in the basal epidermal layers
epidermal melanin content [1, 3]: markedly increases epidermal melanin content
melanin content in basal and suprabasal layers [1, 3]: increased the melanin content not only in the basal layer (i.e., the epidermal compartment where melanocytes reside) but also in the suprabasal layers
epidermal melanin content verified by two independent histochemical technologies ([1]; topical, human ex vivo skin organ cultures): upregulated epidermal melanin content
intensity level of tyrosinase activity in the basal epidermal layers (tyrosinase; topical menthol 1 mM, vs vehicle (FIG. 3)): markedly increases the intensity level of tyrosinase activity in the basal epidermal layers
